According to PMC9133036 (Nature Communications, 2022):
“And” between values parts separate entries of the source, which are not always exact repeats. Equal entries are not always repeated. Where two headings read alike, the source gives them in different places. Blank lines part the entries; values can stand above or below the molecule they belong to.

What was measured:
Assay type in all cases: cell-based
OX2R1-406 = molecular target: T1, OX2R1-406 (Homo sapiens, UniProt O43614); test: IP accumulation assay, C-terminally truncated OX2R1-406; settings: for % IP accumulation: OX2R C25 short; for Emax: relative to OX2R WT with the same ligand;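 on % IP accumulation: 100% is the full-length wild-type OX2R maximal IP response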
T1 construct: the receptor construct contained residues 1–406 of wild-type human OX2R; expressed in transfected cells; host or cells: HEK293
T1 sequence (O43614 1-406): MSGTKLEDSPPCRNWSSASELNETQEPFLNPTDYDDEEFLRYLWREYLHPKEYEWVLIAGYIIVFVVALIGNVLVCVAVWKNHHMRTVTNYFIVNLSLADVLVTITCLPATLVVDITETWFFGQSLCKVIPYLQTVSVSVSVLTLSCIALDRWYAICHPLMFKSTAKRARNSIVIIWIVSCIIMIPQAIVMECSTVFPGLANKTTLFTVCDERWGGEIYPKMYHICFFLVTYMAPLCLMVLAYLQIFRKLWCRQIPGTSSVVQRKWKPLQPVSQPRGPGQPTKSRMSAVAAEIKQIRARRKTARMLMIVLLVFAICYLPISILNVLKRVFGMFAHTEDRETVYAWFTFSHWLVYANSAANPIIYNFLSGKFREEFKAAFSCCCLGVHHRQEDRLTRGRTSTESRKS
Procedure: The cloning, expression, purification, cryo-EM data collection, and structure determination for the two OX2R-G protein complexes described in this paper were carried out independently. For the OX2R-mGsqiN complex the receptor construct contained residues 1–406 of wild-type human OX2R (OX2R^1–406). […] The resulting construct was cloned into a modified pFastBac (ThermoFisher) baculovirus expression vector with the HA signal sequence followed by a FLAG tag at the N-terminus. We were unable to isolate a stable complex between OX2R and full-length wild-type Gαq using the co-expression and purification strategy described below. Instead, an engineered Gαq construct called mGαsqiN was made by modifying the chimeric Gα protein ‘mini-Gs/q71’ previously described. Briefly, the linker […] was deleted and residues 1–27 at the N terminus was replaced by residues 1–30 of Gαi1. A second pFastBac baculovirus was made with this mini-GαqiN gene. An additional pFastBac-Dual baculovirus was made with human Gβ1 and human […] genes. An 8xHis tag was placed at the N-terminus of […]. […] After 48 h, cells were harvested and stored at −80 °C.
(§1) The IP assay was adapted from a prior precedent. HEK293 cells were maintained in DMEM-high glucose (Millipore Sigma) supplemented with 5% fetal bovine serum (Corning) and penicillin-streptomycin (Millipore Sigma). Receptor constructs used were the full-length wild-type (or mutant) human OX1R and OX2R sequences cloned into pCDNA3. To enhance the Emax in the IP assay, a plasmid encoding full-length human Gαq subunit[66] was co-transfected into HEK293 cells with plasmids encoding orexin receptor constructs using Lipofectamine 3000 (Thermo Fisher). 24 h after transfection, the cells were plated on poly-D-lysine coated (Millipore Sigma) tissue culture-treated 96 well white plates with clear bottoms (Perkin Elmer) at 30,000 cells per well in Inositol-free DMEM (MP Biomedicals) supplemented with 5% fetal bovine serum, 4 mM L-glutamine (Millipore Sigma), penicillin-streptomycin, and about 5 uCi (5 ul) per ml myo-[2-3H] inositol (Perkin Elmer). The following day, the media was replaced with agonists that were diluted in HBSS (Millipore Sigma) containing 10 mM lithium chloride (Millipore Sigma) and incubated at 37 °C for 45 min. Then agonists were removed and cells were lysed on ice for 30 min with 10 mM formic acid (Millipore Sigma). 1.25 mg of poly-lysine coated YSI SPA beads (Perkin Elmer) was added to each well. The plates were mixed on an orbital shaker for 30 min. The plates were read on a MicroBeta scintillation counter (Perkin Elmer) the following day. IP accumulation assays on different constructs were performed in n ≥ 3 independent experiments (each done in duplicate), where n is shown in Supplementary Table 2.

OX2R T111S/T135A = molecular target: T2, OX2R T111S/T135A (Homo sapiens, UniProt O43614, T111S/T135A); test: IP accumulation assay, OX2R T111S/T135A; settings: for EC50: IP accumulation
T2 construct: FLAG; expressed in transfected cells; host or cells: HEK293
T2 sequence (O43614 1-444 T111S/T135A): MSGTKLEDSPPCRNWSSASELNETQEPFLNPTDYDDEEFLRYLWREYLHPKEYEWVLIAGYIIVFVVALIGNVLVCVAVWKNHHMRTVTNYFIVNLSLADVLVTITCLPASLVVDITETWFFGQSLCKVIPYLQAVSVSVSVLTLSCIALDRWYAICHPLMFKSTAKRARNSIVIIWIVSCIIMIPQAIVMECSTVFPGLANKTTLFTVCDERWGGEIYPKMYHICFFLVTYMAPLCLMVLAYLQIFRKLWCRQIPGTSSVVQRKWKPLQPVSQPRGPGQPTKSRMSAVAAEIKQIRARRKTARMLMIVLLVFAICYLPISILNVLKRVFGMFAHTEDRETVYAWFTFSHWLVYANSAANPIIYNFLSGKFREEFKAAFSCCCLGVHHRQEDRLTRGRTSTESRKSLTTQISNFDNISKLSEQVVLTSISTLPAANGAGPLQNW
From the text: as §1

human OX1R wild-type = molecular target: T3, human OX1R wild-type (Homo sapiens, UniProt O43613); test: IP accumulation assay, OX1R WT
T3 construct: FLAG; expressed in transfected cells; host or cells: HEK293
T3 sequence (O43613 1-425): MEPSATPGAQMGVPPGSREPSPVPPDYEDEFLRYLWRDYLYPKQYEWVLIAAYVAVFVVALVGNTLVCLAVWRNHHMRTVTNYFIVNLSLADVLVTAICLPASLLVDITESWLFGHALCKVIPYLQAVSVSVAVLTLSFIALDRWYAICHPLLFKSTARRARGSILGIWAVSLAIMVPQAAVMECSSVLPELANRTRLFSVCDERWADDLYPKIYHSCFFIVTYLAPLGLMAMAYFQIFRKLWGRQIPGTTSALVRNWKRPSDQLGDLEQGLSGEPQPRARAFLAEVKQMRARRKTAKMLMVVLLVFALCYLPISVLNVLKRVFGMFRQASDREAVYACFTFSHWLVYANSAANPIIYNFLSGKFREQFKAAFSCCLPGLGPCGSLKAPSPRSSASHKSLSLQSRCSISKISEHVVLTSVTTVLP
From the text: as §1

Molecule: orexin B
% IP accumulation (OX2R1-406; OXB conc (log, M) -6.95, listed as OXB): 116.05% and 97.72% and 102.67% and 64.00% and 80.15% and 76.35% and 110.96%
% IP accumulation (OX2R1-406; OXB conc (log, M) -7.43, listed as OXB): 91.34% and 86.13% and 87.29% and 57.27% and 82.96% and 71.01% and 111.84%
% IP accumulation (OX2R1-406; OXB conc (log, M) -7.91, listed as OXB): 79.86% and 83.63% and 74.72% and 64.39% and 71.59% and 62.47% and 94.62%
% IP accumulation (OX2R1-406; OXB conc (log, M) -8.39, listed as OXB): 46.18% and 59.23% and 44.98% and 53.61% and 63.91% and 47.69% and 72.05%
% IP accumulation (OX2R1-406; OXB conc (log, M) -9.82, listed as OXB): 4.24% and 6.17% and 0.00% and 5.40% and 1.80% and 6.02% and 6.79%
% IP accumulation (OX2R1-406; OXB conc (log, M) -10.29, listed as OXB): 0.00% and 3.23%
Emax (OX2R1-406): 100

EC50 (OX2R T111S/T135A; pEC50 ± SEM, read-out: pEC50 (converted)): 3.98 µM
EC50 (OX2R T111S/T135A; read-out: EC50): 3.6 µM
% IP accumulation (OX2R T111S/T135A; TAK-925 conc (log, M) -4.00): 75.61% and 80.32% and 68.16%
% IP accumulation (OX2R T111S/T135A; TAK-925 conc (log, M) -4.48): 79.41% and 78.58% and 59.24%
% IP accumulation (OX2R T111S/T135A; TAK-925 conc (log, M) -4.95): 63.00% and 60.94% and 53.37%
% IP accumulation (OX2R T111S/T135A; TAK-925 conc (log, M) -5.43): 45.74% and 44.90% and 36.03%
% IP accumulation (OX2R T111S/T135A; TAK-925 conc (log, M) -5.91): 30.51% and 19.14% and 15.90%
% IP accumulation (OX2R T111S/T135A; TAK-925 conc (log, M) -6.39): 18.69% and 18.10% and 13.23%
% IP accumulation (OX2R T111S/T135A; TAK-925 conc (log, M) -8.29): 6.54% and 0.00%
% IP accumulation (OX2R T111S/T135A; TAK-925 conc (log, M) -8.77): 0.00% and 2.28% and 1.85%
Emax (OX2R T111S/T135A; relative to OX2R WT/TAK-925): 78
EC50 (OX2R1-406; IP accumulation): 0.0054 µM
Emax (OX2R1-406): 100
activation at 100 µM (human OX1R wild-type; 0.75 h, TAK-925 conc (log, M) -4.00, normalized to S103T/A127T Emax): 59%
activation at 33.1 µM (human OX1R wild-type; 0.75 h, TAK-925 conc (log, M) -4.48): 40.3%
activation at 11.2 µM (human OX1R wild-type; 0.75 h, TAK-925 conc (log, M) -4.95): 23.1%
activation at 3.72 µM (human OX1R wild-type; 0.75 h, TAK-925 conc (log, M) -5.43): 13.6%
activation at 1.23 µM (human OX1R wild-type; 0.75 h, TAK-925 conc (log, M) -5.91): 8.76%
activation at 0.0457 µM (human OX1R wild-type; 0.75 h, TAK-925 conc (log, M) -7.34): 7.24%
pEC50 (human OX1R wild-type; IP accumulation): not saturating
EC50 (human OX1R wild-type; IP accumulation, non-saturating): > 100 µM
Molecule: COC(=O)N1CCC[C@H](NS(C)(=O)=O)[C@@H]1CO[C@H]1CC[C@@H](c2ccccc2)CC1 [TAK-925, methyl (2R,3S)−3-[(methylsulfonyl)amino]−2-{[(cis−4-phenylcyclohexyl)oxy]methyl}piperidine-1-carboxylate]
% IP accumulation (OX2R1-406; TAK-925 conc (log, M) -7.39): 102.09% and 80.64% and 87.71% and 69.65% and 70.45% and 93.38%
% IP accumulation (OX2R1-406; TAK-925 conc (log, M) -7.86): 87.29% and 59.28% and 70.66% and 54.93% and 62.49% and 77.19%
